# Reference: patent publication US20230172874A1, “USE OF CANNABIDIOL FOR THE TREATMENT OF INSOMNIA ASSOCIATED TO PAIN” (priority 2021, published 2023)
# Entries after “also recorded” stand apart in the source; their conditions may differ.
# Assays:
# healthy rats = conditions: intracerebroventricular injection 10 μg/5 μL; cited from earlier work
# naïve animals = conditions: cited from earlier work
# neuropathic rats [1] = experiment: EEG/EMG recording of wakefulness, NREM and REM sleep in neuropathic rats; type: in vivo, male Wistar rats
# Protocol: (§1) Animals. The experiments were performed on male Wistar rats weighing 250 g (six weeks). All animals were housed in standardized animal facilities under a 12 h light/dark cycle (lights on at 7 AM) with ad libitum access to food and water. All surgeries and experimental procedures were performed during the light cycle. Experimental protocols were approved by the Animal Ethics Committee of the local institutional committee for animal use and care (McGill University, Qc, Canada). These protocols follow ethical guidelines for investigation of experimental pain in conscious animals of the IASP, the Canadian Institute of Health Research guidelines for animal care and scientific use.
# (§2) Spared nerve injury (SNI). SNI was performed according to the method of Decosterd and Woolf^35. Rats were deeply anaesthetized with isofluorane (5%), anaesthesia was confirmed by the absence of a nociceptive reflex reaction to a paw pinch. The sciatic nerve was exposed at mid-thigh level distal to the trifurcation and freed of connective tissue; the three peripheral branches (sural, common peroneal, and tibial nerves) of the sciatic nerve were exposed without stretching nerve structures. Both tibial and common peroneal nerves were ligated and transected together. Carprofen (5 mg/kg) was administrated subcutaneously pre-surgery as well as three days every 24 hours post-surgery as analgesic. After SNI, each rat was housed in its home cage for 15 days until the neuropathy is developed.
# EEG/EMG Implantation. Neuropathic rats (10 days after surgery) and naïve rats were placed in a stereotaxic frame following isoflurane-induced anesthesia (5%). Anaesthesia was confirmed by the absence of a nociceptive reflex reaction to a paw pinch. For EEG monitoring, three stainless-steel epidural electrodes were positioned through 1.5 mm burr holes: one over the parietal cortex on each side, and the third (as a reference) in the right prefrontal cortex. In rats, their respective locations relative to bregma were −2 mm anteroposterior (AP) and −3 mm lateral (L), −7 mm AP and −3 mm L, and −4.5 mm AP and +3 mm L, according to Paxinos and Watson. For EMG monitoring, three flexible stainless-steel wire electrodes, silicon insulation removed at the terminal 3-4 mm, were implanted into the neck muscles (two bilaterally and one in the middle). Wires were fused with the electrodes and the connectors were fixed to the skull with dental acrylic (Coltene/Whaledent). Carprofen (10mg/kg) was administrated subcutaneously pre-surgery as well as three days every 24 hours post-surgically as analgesic. Each rat was single-caged post-surgery and allowed to recover for the next 5 days^13. 24 hours after surgery, the rats were placed in the recording chamber and connected to a flexible 6-flat wire (3M Scotchflex™) in a freely moving manner for several hours during the subsequent 5 days. No recordings were performed, but tolerance to the cable and sleep behavior were observed. All rats from a home cage were also grouped for one hour each day for socialization to circumvent anxious-depressive-like behavior induced by social isolation^13.
# Study design for EEG and EMG assessment. […] […] In another cohort of rats rimonabant (1 mg/kg) was also injected i.p. at 6 A.M. in neuropathic rats.
# EEG and EMG recording. Six days after surgery (16 days post-SNI), mechanical allodynia was assessed via von Frey test, and EEG/EMG was recorded for a period of 6 h (from 6 AM to 12 PM). The treatments (described below) were performed at 6:00 A.M., right after the recording had started. […] Consecutive 10 s epochs were subjected to a fast Fourier transform (FFT), and EEG power spectra density was computed in the frequency range of 0-64 Hz^13.
# Analysis of EEG and EMG data. The three classical vigilance states as described in the rat were discriminated on the basis of the cortical EEG and neck EMG activities. […]
# rats with SNI = experiment: Mechanical allodynia (von Frey test) after spared nerve injury; type: in vivo, male Wistar rats
# Protocol: as §1, §2
# Mechanical allodynia. On day 15 after SNI, mechanical allodynia was assessed via von Frey test^38. Rats were placed in a test chamber, and they were allowed to acclimate for 60 minutes. Tactile allodynia was determined by measuring paw withdrawal thresholds in response to mid-plantar hind paw stimuli with Calibrated von Frey filaments^36. These filaments are of a logarithmically incremental stiffness corresponding to an applied force ranging from 0.4 to 15 g. Every filament was applied during 10 seconds in the hind paw to measure the withdrawal threshold. The 2.0 g force filament was applied first; in the presence of a response, the next smaller filament was applied. In the absence of a response, the next higher filament was applied. After the first change in response, the test continued until six responses were collected. The paw withdrawal threshold was then converted to the cutaneous nociceptive threshold by using the “up-down” method^39. The stimulus intensity (filament stiffness) required to produce a response in 50% of the applications for each animal was defined as 50% withdrawal threshold (expressed in g). The 50% withdrawal threshold was determined according to the following equation: 50% Threshold (g)=(10^ [Xf+kδ])/10,000. Where Xf is the value of the last von Frey filament used (in logarithmic units), k is the correction factor based on the response patterns of a calibration table and the tabulated value based on the pattern of positive and negative responses, and δ indicates the average differences between stimuli in logarithmic units^38,39. In non-lesioned animals (naïve) a value 11.98-15 g was considered normal, while the presence of allodynia was considered when the 50% withdrawal threshold of the limb is less than 4 g. All nerve-ligated rats were verified to be allodynic before the experiments. Rats without allodynia were excluded.
# neuropathic rats [2] = experiment: Sleep fragmentation analysis (Sleep Fragmentation Index); type: in vivo, male Wistar rats; conditions: NP rats; CBD 20 mg/kg i.p.; vs NP+VEH
# Protocol: Sleep fragmentation analysis. Sleep Fragmentation Index (SFI) is determinant of excessive daytime sleepiness as it is characterized by repetitive short interruptions of sleep by periods of wakefulness. […] In this study, SFI is calculated as the total number of wakefulness episodes in 24 h divided by the total sleep time in hours during 24 h (REM+NREM).
# [3] = naïve animals, acute systemic 20 mg/kg
# [4] = 6 h EEG/EMG, i.p., CBD 20 mg/kg, WAY 100635 2 mg/kg
# [5] = NP rats, 6 h EEG/EMG, i.p., CBD 20 mg/kg, rimonabant 1 mg/kg
structure (smiles),measurement,setting,value
"C=C(C)[C@@H]1CCC(C)=C[C@H]1c1c(O)cc(CCCCC)cc1O [CBD, 2-[(1R,6R)-3-methyl-6-prop-1-en-2-ylcyclohex-2-en-1-yl]-5-pentylbenzene-1,3-diol]",REM sleep,healthy rats,decrease in REM sleep
same,wakefulness,healthy rats,increase in wakefulness
same,sleep duration and sleep parameters,naïve animals; [3],no significant effect
same,slow-wave sleep (SWS) latency,naïve animals; [3],reduced slow-wave sleep (SWS) latency
same,REM sleep,naïve animals; single doses of 40 mg/kg,without affecting REM sleep
same,SWS,naïve animals; single doses of 40 mg/kg,increased SWS
same,SWS latency,naïve animals; single doses of 40 mg/kg,decreased SWS latency
same,"total NREM sleep, relative to NP rats treated with vehicle",neuropathic rats [1]; [4],able to reverse NREM sleep impairments; also recorded: restored NREM sleep
same,"total time of wakefulness, relative to NP rats treated with vehicle",neuropathic rats [1]; [4],decrease in the amount of time spent in wakefulness; also recorded: decreased wakefulness
same,"REM sleep (total time), relative to NP rats treated with vehicle","neuropathic rats [1]; 6 h EEG/EMG, i.p., CBD 20 mg/kg, WAY 100635 2 mg/kg, rimonabant 1 mg/kg",restored the normal REM sleep
same,"NREM sleep, relative to naïve animals treated with vehicle","neuropathic rats [1]; NP rats, 6 h EEG/EMG, CBD 20 mg/kg i.p.",no difference was detected
same,"REM sleep, relative to naïve animals treated with vehicle",neuropathic rats [1]; [5],no difference was detected
same,"wakefulness, relative to naïve animals treated with vehicle",neuropathic rats [1]; [5],no difference was detected
same,reversal of sleep perturbations induced by neuropathic pain (sleep-wake cycle),"neuropathic rats [1]; NP rats, i.p., CBD 20 mg/kg, rimonabant 1 mg/kg",Reverses the Sleep Perturbations; also recorded: restored the normal sleep-wake cycle; also recorded: restores the impaired sleep in a dose-dependent manner
same,AUC of the antiallodynic effect,rats with SNI; 10 mg/kg vs 20 mg/kg,not statistically different
same,AUC of the antiallodynic effect,rats with SNI; 20 mg/kg group vs CBD 5 mg/kg (p<0.001) and vs vehicle (p<0.001),significantly higher
same,antiallodynic effect,"rats with SNI; SNI rats, 5 mg/kg i.p.",did not show any antiallodynic effect
same,reversal of mechanical allodynia,"rats with SNI; SNI rats, 10 mg/kg i.p., between 2 h and 4.5 h (p<0.05)",able to reverse mechanical allodynia
same,reversal of mechanical allodynia,"rats with SNI; SNI rats, 20 mg/kg i.p., between 1 h and 5 h (p<0.05)",able to reverse mechanical allodynia
same,"paw withdrawal threshold / mechanical allodynia, dose dependence","rats with SNI; SNI rats, CBD 5, 10 and 20 mg/kg intraperitoneally, 0.5-7.5 hours, vs vehicle",increasing the paw withdrawal threshold in a dose-dependent manner; also recorded: reduces mechanical allodynia in a dose-dependent manner; also recorded: reduces neuropathic pain
same,duration of antiallodynic effects post-administration,"rats with SNI; SNI rats, CBD i.p.",up to 4 hours
same,"sleep fragmentation (sleep fragmentation index, SFI)",neuropathic rats [2],decrease of the sleep fragment index (SFI) to normal levels; also recorded: attenuates the sleep fragmentation
